Experiments:
Assay type in all cases: biochemical
[1] = target: Human recombinant cathepsin S (Homo sapiens (Human), UniProt P25774); experiment: In vitro cathepsin Ki inhibition measurements, cathepsin S; settings: for selectivity against other mammalian cathepsins (in words): cathepsin S over other mammalian cathepsins; for Ki: read-out: In vitro Ki (nM) vs Cath S
Experimental: (§1) Stock solutions of substrate or inhibitor were made up to 10 mM in 100% dimethylsulfoxide (DMSO) (Rathburns, Glasgow, U.K.) and diluted as appropriately required. In all cases the DMSO concentration in the assays was maintained at less than 1% (vol./vol.). The equilibrium inhibition constants (Ki^ss) for each compound were measured under steady-state conditions monitoring enzyme activity as a function of inhibitor concentration. The values were calculated on the assumption of pure competitive behaviour (Cornish-Bowden, A. Fundamentals of enzyme kinetics Portland Press; 1995, 93-128.).
(§2) The apparent inhibition constant (Ki) for each compound was determined on the basis that inhibition was reversible and occurred by a pure-competitive mechanism. The Ki values were calculated, from the dependence of enzyme activity as a function of inhibitor concentration, by direct regression analysis (Prism v 3.02) using Equation 2 (Cornish-Bowden, A., 1995.).
(§3) In situations where the apparent dissociation constant (Ki^app) approached the enzyme concentrations, the Ki^app values were calculated using a quadratic solution in the form described by Equation 3 (Morrison, J. F. Trends Biochem. Sci., 7, 102-105, 1982; Morrison, J. F. Biochim. Biophys. Acta. 185, 269-286, 1969: Stone, S. R. and Hofsteenge, J. Biochemistry, 25, 4622-4628, 1986).
(§4) Curves were fitted by non-linear regression analysis (Prism) using a fixed value for the enzyme concentration. Equation 4 was used to account for the substrate kinetics, where ‘Ki’ is the inhibition constant, ‘[So]’ is the initial substrate concentration and ‘KM^app’ is the apparent macroscopic binding (Michaelis) constant for the substrate (Morrison, 1982).

Human liver cathepsin L = Human liver cathepsin L (Homo sapiens (Human), UniProt P07711); experiment: In vitro cathepsin Ki inhibition measurements, cathepsin L; settings: read-out: In vitro Ki (nM) vs Cath L
Experimental: as §1
Human liver cathepsin L (0.25 nM final, Athens Research and Technology, GA, USA) was routinely assayed in 10 mM bis-tris propane; pH 6.5 containing 1 mM EDTA, 5 mM 2-mercaptoethanol, 1 mM CaCl2 and 4 μM Ac-Phe-Arg-AMC ([S]=KM) (Bachem).
as §2, §3, §4

[2] = target: Human recombinant cathepsin K (Homo sapiens (Human), UniProt P43235); experiment: In vitro cathepsin Ki inhibition measurements, cathepsin K; settings: read-out: In vitro Ki (nM) vs Cath K
Experimental: as §1
Human recombinant cathepsin K (0.25 nM final; B. Turk, Josef, Stefan Institute, Ljubljana, Slovenia), was routinely assayed in 100 mM sodium acetate; pH 5.5 containing 1 mM EDTA, 10 mM L-cysteine and 1.8 μM Z-Leu-Arg-AMC ([S]=KM).
as §2, §3, §4

Human liver cathepsin B = Human liver cathepsin B (Homo sapiens (Human), UniProt P07858); experiment: In vitro cathepsin Ki inhibition measurements, cathepsin B; settings: read-out: In vitro Ki (nM) vs Cath B
Experimental: as §1
Human liver cathepsin B (0.25 nM final; Merck Biosciences), was routinely assayed in 10 mM bis-tris propane; pH 6.5 containing 1 mM EDTA, 5 mM 2-mercaptoethanol, 1 mM CaCl2 and 60 μM Z-Phe-Arg-AMC ([S]=KM) (Bachem, Weil am Rhein, Germany).
as §2, §3
as §4, with “In Equation 3 ‘vi’ is the observed residual activity, ‘F’ is the difference between the maximum activity (i.e. in the absence of inhibitor) and minimum enzyme activity, ‘Eo’ is the total enzyme concentration, ‘Ki^app’ is the apparent dissociation constant and ‘Io’ is the inhibitor concentration. Curves” for “Curves”

[3] = target: Human recombinant cathepsin V (Homo sapiens (Human), UniProt O60911); experiment: In vitro cathepsin Ki inhibition measurements, cathepsin V; settings: read-out: In vitro Ki (nM) vs Cath V
Experimental: as §1
Human recombinant cathepsin V (0.25 nM final, Merck Biosciences) was routinely assayed in 100 mM sodium acetate; pH 5.5 containing 10 mM L-cysteine, 0.001% (vol./vol.) zwittergent 3-12 (Merck Biosciences) and 5 μM Z-Leu-Arg-AMC (KM=0.5 μM) (Amura).
as §2, §3, §4

Sequence of Human liver cathepsin L (P07711 114-333): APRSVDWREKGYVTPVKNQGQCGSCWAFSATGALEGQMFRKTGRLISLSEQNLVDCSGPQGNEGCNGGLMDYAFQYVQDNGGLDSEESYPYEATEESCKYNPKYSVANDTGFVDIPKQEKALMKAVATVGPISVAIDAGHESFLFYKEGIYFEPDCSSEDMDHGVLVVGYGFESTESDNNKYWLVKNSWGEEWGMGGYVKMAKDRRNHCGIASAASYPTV
Sequence of Human recombinant cathepsin S (P25774 115-331): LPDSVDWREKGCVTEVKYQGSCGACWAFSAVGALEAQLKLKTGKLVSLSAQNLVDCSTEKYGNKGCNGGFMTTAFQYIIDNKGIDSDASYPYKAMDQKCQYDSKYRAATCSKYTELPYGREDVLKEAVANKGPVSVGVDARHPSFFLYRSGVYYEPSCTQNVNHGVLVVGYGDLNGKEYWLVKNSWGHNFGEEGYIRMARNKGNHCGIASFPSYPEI
Sequence of Human recombinant cathepsin K (P43235 115-329): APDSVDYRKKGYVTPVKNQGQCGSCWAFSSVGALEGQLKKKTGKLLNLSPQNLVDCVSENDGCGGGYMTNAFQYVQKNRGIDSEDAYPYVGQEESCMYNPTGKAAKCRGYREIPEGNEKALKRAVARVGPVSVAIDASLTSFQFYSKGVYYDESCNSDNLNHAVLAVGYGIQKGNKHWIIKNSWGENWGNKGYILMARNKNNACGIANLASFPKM
Sequence of Human recombinant cathepsin V (O60911 114-334): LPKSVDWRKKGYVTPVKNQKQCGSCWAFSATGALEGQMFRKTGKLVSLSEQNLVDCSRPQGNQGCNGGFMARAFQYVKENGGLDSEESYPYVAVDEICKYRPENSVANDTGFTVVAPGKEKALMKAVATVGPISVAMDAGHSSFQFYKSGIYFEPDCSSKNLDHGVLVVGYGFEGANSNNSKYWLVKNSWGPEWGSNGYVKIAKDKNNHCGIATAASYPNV

| Structure (SMILES) | selectivity against other mammalian cathepsins (in words) [1] | Ki [1] | less potent verses cathepsin S ([1]; relative to EXAMPLE 1) | Ki (Human liver cathepsin L) | Ki [2] | Ki (Human liver cathepsin B) | Ki [3] | less potent verses cathepsin S ([1]; relative to EXAMPLE 2) | selectivity verses cathepsin K (in words) ([1]; cathepsin S over cathepsin K) | improvement in in vitro potency against human cathepsin S ([1]; relative to Compound 1) | improvement in in vitro potency against human cathepsin S ([1]; relative to prior art compound (38)) | improvement in in vitro potency against human cathepsin S ([1]; relative to Compound 7) | selectivity verses cathepsin K ([1]; cathepsin S over cathepsin K) |
| --- | --- | --- | --- | --- | --- | --- | --- | --- | --- | --- | --- | --- | --- |
| C[C@H]1CC[C@H]([C@H](NC(=O)c2ccccc2)C(=O)N2C[C@H](F)[C@H]3OCC(=O)[C@H]32)CC1 [Compound 5] | high selectivity | 28 nM | 5.6 fold | > 10000 nM | > 10000 nM | > 10000 nM | > 10000 nM |  |  |  |  |  |  |
| C[C@H]1CC[C@H]([C@H](NC(=O)c2cccc(-n3cnnn3)c2)C(=O)N2C[C@H](F)[C@H]3OCC(=O)[C@H]32)CC1 [Compound 11] | high selectivity | 24 nM |  | > 10000 nM | > 10000 nM | > 10000 nM | > 10000 nM | 11 fold |  |  |  |  |  |
| O=C(N[C@H](C(=O)N1C[C@H](F)[C@H]2OCC(=O)[C@H]21)C1CCCCC1)c1ccccc1 [Compound 2] |  |  |  | 580 nM |  | > 7000 nM | 700 nM |  | little selectivity | 3.8 fold |  |  |  |
| C[C@H]1CC[C@H]([C@H](NC(=O)c2ccccc2)C(=O)N2C[C@H](Cl)[C@H]3OCC(=O)[C@H]32)CC1 [EXAMPLE 1, N—((S)-2-((3aS,6S,6aS)-6-chloro-3-oxodihydro-2H-furo[3,2-b]pyrrol-4(5H,6H,6aH)-yl)-1-((1r,4S)-4-methylcyclohexyl)-2-oxoethyl)benzamide] | high selectivity | 5 nM |  | 1400 nM | > 10000 nM | > 10000 nM | > 10000 nM |  |  | 45 fold | 111 fold |  |  |
| C[C@H]1CC[C@H]([C@H](NC(=O)c2cccc(-n3ccnc3)c2)C(=O)N2C[C@H](Cl)[C@H]3OCC(=O)[C@H]32)CC1 |  | 0.4 nM |  | 4500 nM | > 3000 nM | 4000 nM | 3200 nM |  |  |  |  |  |  |
| C[C@H]1CC[C@H]([C@H](NC(=O)c2cccc(-n3cnnn3)c2)C(=O)N2C[C@H](Cl)[C@H]3OCC(=O)[C@H]32)CC1 [EXAMPLE 2, N—((S)-2-((3aS,6S,6aS)-6-chloro-3-oxodihydro-2H-furo[3,2-b]pyrrol-4(5H,6H,6aH)-yl)-1-((1r,4S)-4-methylcyclohexyl)-2-oxoethyl)-3-(1H-tetrazol-1-yl)benzamide] | high selectivity | 2.2 nM |  | > 10000 nM | > 8000 nM | > 10000 nM | > 10000 nM |  |  |  |  | 77 fold |  |
| O=C(N[C@H](C(=O)N1CC[C@H]2OCC(=O)[C@H]21)C1CCCCC1)c1cccc(-n2cnnn2)c1 [Compound 7] |  |  |  | > 6500 nM |  | > 10000 nM | 5000 nM |  |  |  |  |  |  |
| O=C(N[C@H](C(=O)N1C[C@H](Cl)[C@H]2OCC(=O)[C@H]21)C1CCCCC1)c1ccccc1 [Compound 3] |  |  |  | 100 nM |  | 780 nM | 100 nM |  |  | 27 fold |  |  | 4 fold |
| CC1CCC([C@H](NC(=O)c2ccccc2)C(=O)N2CC[C@H]3OCC(=O)[C@H]32)CC1 (some centres unmarked) [Compound 4] |  | 72 nM |  | > 10000 nM | > 4800 nM | > 10000 nM | > 10000 nM |  |  | 3 fold |  |  | > 65 fold |
| O=C(N[C@@H](CC1CCCCC1)C(=O)N1CC[C@H]2OCC(=O)[C@H]21)c1ccccc1 [compound (38), reference compound] |  |  |  | 1700 nM | > 4000 nM | > 10000 nM | 5700 nM |  |  |  |  |  |  |
| CC1(C)CCC([C@H](NC(=O)c2cccc(-n3cnnn3)c2)C(=O)N2C[C@H](Cl)[C@H]3OCC(=O)[C@H]32)CC1 [EXAMPLE 3, N—((S)-2-((3aS,6S,6aS)-6-chloro-3-oxodihydro-2H-furo[3,2-b]pyrrol-4(5H,6H,6aH)-yl)-1-(4,4-dimethylcyclohexyl)-2-oxoethyl)-3-(1H-tetrazol-1-yl)benzamide] | high selectivity | 12 nM |  | > 10000 nM | > 10000 nM | > 10000 nM | 1700 nM |  |  |  |  | 15 fold |  |
| O=C(N[C@H](C(=O)N1CC[C@H]2OCC(=O)[C@H]21)C1CCCCC1)c1ccccc1 [Compound 1] |  |  |  | 1250 nM |  | > 10000 nM | 1900 nM |  |  |  |  |  |  |
| O=C(N[C@H](C(=O)N1C[C@H](Cl)[C@H]2OCC(=O)[C@H]21)C1CCCCC1)c1cccc(-n2cnnn2)c1 [Compound 9] |  |  |  | > 1200 nM |  | 650 nM | 240 nM |  |  |  |  | 47 fold | 7.5 fold |
| C[C@H]1CC[C@H]([C@H](NC(=O)c2cccc(-n3ccnc3)c2)C(=O)N2C[C@H](F)[C@H]3OCC(=O)[C@H]32)CC1 [Compound 15] |  | 15 nM |  | > 10000 nM | > 10000 nM | > 10000 nM | > 10000 nM |  |  |  |  |  |  |
| C[C@H]1CC[C@H]([C@H](NC(=O)c2ccccc2)C(=O)N2C[C@@H](Cl)[C@H]3OCC(=O)[C@H]32)CC1 [Compound 6] | high selectivity | 75 nM | 15 fold | > 10000 nM | > 10000 nM | > 10000 nM | > 10000 nM |  |  |  |  |  |  |
| O=C(N[C@H](C(=O)N1C[C@H](F)[C@H]2OCC(=O)[C@H]21)C1CCCCC1)c1cccc(-n2cnnn2)c1 [Compound 8] |  |  |  | 4000 nM |  | 6000 nM | 2000 nM |  |  |  |  | 3.4 fold | 6.8 fold |
| C[C@H]1CC[C@H]([C@H](NC(=O)c2cccc(-n3cnnn3)c2)C(=O)N2CC[C@H]3OCC(=O)[C@H]32)CC1 [Compound 10] |  | 79 nM |  | > 10000 nM | > 10000 nM | > 10000 nM | > 10000 nM |  |  |  |  | 2.2 fold | > 125 fold |
| O=C(N[C@H](C(=O)N1C[C@H](Cl)[C@H]2OCC(=O)[C@H]21)C1CCCCC1)c1cccc(-n2ccnc2)c1 [Compound 13] |  |  |  | 270 nM |  | 440 nM | 170 nM |  |  |  |  |  |  |
| C[C@H]1CC[C@H]([C@H](NC(=O)c2cccc(-n3cnnn3)c2)C(=O)N2C[C@@H](Cl)[C@H]3OCC(=O)[C@H]32)CC1 [Compound 12] | high selectivity | 55 nM |  | > 10000 nM | > 10000 nM | > 10000 nM | > 10000 nM | 25 fold |  |  |  |  |  |
| O=C(N[C@H](C(=O)N1C[C@@H](Cl)[C@H]2OCC(=O)[C@H]21)C1CCCCC1)c1cccc(-n2ccnc2)c1 [Compound 14] |  |  |  | 1900 nM |  | 5000 nM | 1800 nM |  |  |  |  |  |  |
